Laboratory results published in EPA's ToxRefDB 2.

Legend:
rat [1] = conditions: Prenatal developmental toxicity study, long evans, Oral, Gavage/Intubation, dose end: 15 GD
rat [2] = conditions: Prenatal developmental toxicity study, sprague dawley, Oral, Gavage/Intubation, dose end: 15 GD
rabbit [3] = conditions: Prenatal developmental toxicity study, new zealand white, Oral, Gavage/Intubation, dose end: 18 GD
rat [4] = conditions: Prenatal developmental toxicity study, sprague dawley, Oral, Gavage/Intubation, dose end: 19 GD
rat [5] = conditions: Prenatal developmental toxicity study, sprague dawley, Oral, Gavage/Intubation, dose end: 15 GD; remark: listed apart in the source
dog = conditions: Chronic toxicity, beagle, Oral, Feed, dose end: 104 week
rabbit [6] = conditions: Prenatal developmental toxicity study, new zealand white, Oral, Gavage/Intubation, dose end: 18 GD; remark: listed apart in the source
[7] = group: developmental, developmental / developmental malformation / placenta / size + systemic / in life observation / body weight / fetal weight
[8] = group: maternal, systemic / in life observation / body weight / body weight gain
[9] = group: developmental, developmental / developmental malformation / bone / full supernumerary + developmental / developmental malformation / diaphragm / …
[10] = group: maternal, systemic / in life observation / body weight / body weight gain + systemic / in life observation / clinical signs / discharge on cageboard…
[11] = group: developmental, developmental / developmental malformation / bone / full supernumerary + developmental / developmental malformation / bone / incomplete …
[12] = group: maternal, reproductive / reproductive performance / postimplantation loss / postimplantation loss + systemic / in life observation / clinical signs / …
[13] = group: developmental, developmental / developmental malformation / bone / unossified
[14] = group: maternal, reproductive / reproductive performance / postimplantation loss / postimplantation loss + reproductive / reproductive performance / …
[15] = group: developmental, developmental / developmental malformation / bone / enlarged fontanel + developmental / developmental malformation / bone / incomplete …
[16] = group: maternal, systemic / in life observation / clinical signs / motor activity + systemic / in life observation / clinical signs / respiration (rales) + …
[17] = group: cholinesterase, cholinesterase / cholinesterase / cholinesterase / plasma cholinesterase (che) + cholinesterase / cholinesterase / cholinesterase / brain …
[18] = group: systemic, systemic / clinical chemistry / alkaline phosphatase (alp/alk) / alkaline phosphatase (alp/alk)
[19] = group: cholinesterase, cholinesterase / cholinesterase / cholinesterase / brain (regional) cholinesterase (che) + cholinesterase / cholinesterase / cholinesterase…
[20] = group: developmental, developmental / developmental malformation / bone / [other]
[21] = group: maternal, systemic / in life observation / body weight / body weight + systemic / in life observation / body weight / body weight gain + systemic / in…

Compound: NC1CCCCC1 [Cyclohexylamine]
- LEL (rat [1]; [7]): 100 mg/kg/day
- LOAEL (rat [1]; [7]): > 100 mg/kg/day
- NEL (rat [1]; [7]): 30 mg/kg/day
- NOAEL (rat [1]; [7]): ≥ 100 mg/kg/day
- LEL (rat [1]; [8]): 100 mg/kg/day
- LOAEL (rat [1]; [8]): > 100 mg/kg/day
- NEL (rat [1]; [8]): 30 mg/kg/day
- NOAEL (rat [1]; [8]): ≥ 100 mg/kg/day

Compound: CCCCOCCOC(=O)COc1nc(Cl)c(Cl)cc1Cl [Triclopyr-butotyl]
- LEL (rat [2]; [9]): 300 mg/kg/day
- LOAEL (rat [2]; [9]): > 300 mg/kg/day
- NEL (rat [2]; [9]): 100 mg/kg/day
- NOAEL (rat [2]; [9]): ≥ 300 mg/kg/day
- LEL (rat [2]; [8]): 30 mg/kg/day
- LOAEL (rat [2]; [10]): > 300 mg/kg/day
- NEL (rat [2]; [10]): 5 mg/kg/day
- NOAEL (rat [2]; [10]): ≥ 300 mg/kg/day
- LEL (rabbit [3]; [11]): 100 mg/kg/day
- LOAEL (rabbit [3]; [11]): 100 mg/kg/day
- NEL (rabbit [3]; [11]): 30 mg/kg/day
- NOAEL (rabbit [3]; [11]): 30 mg/kg/day
- LEL (rabbit [3]; [12]): 100 mg/kg/day
- LOAEL (rabbit [3]; [12]): 100 mg/kg/day
- NEL (rabbit [3]; [12]): 30 mg/kg/day
- NOAEL (rabbit [3]; [12]): 30 mg/kg/day

Compound: CC#N [Acetonitrile]
- LEL (rat [4]; [13]): 275 mg/kg/day
- LOAEL (rat [4]; [13]): > 275 mg/kg/day
- NEL (rat [4]; [13]): 190 mg/kg/day
- NOAEL (rat [4]; [13]): ≥ 275 mg/kg/day
- LEL (rat [4]; [14]): 275 mg/kg/day
- LOAEL (rat [4]; [14]): > 275 mg/kg/day
- NEL (rat [4]; [14]): 190 mg/kg/day
- NOAEL (rat [4]; [14]): ≥ 275 mg/kg/day

Compound: CC1COC(=O)O1 (stereo not given) [Propylene carbonate]
- LEL (rat [5]; [15]): 5000 mg/kg/day
- LOAEL (rat [5]; [15]): 5000 mg/kg/day
- NEL (rat [5]; [15]): 3000 mg/kg/day
- NOAEL (rat [5]; [15]): 3000 mg/kg/day
- LEL (rat [5]; [16]): 3000 mg/kg/day
- LOAEL (rat [5]; [16]): 3000 mg/kg/day
- NEL (rat [5]; [16]): 1000 mg/kg/day
- NOAEL (rat [5]; [16]): 1000 mg/kg/day

Compound: CCOP(=S)(NC(C)C)Oc1ccccc1C(=O)OC(C)C (stereo not given) [Isofenphos]
- LOAEL (dog; group: cholinesterase, cholinesterase / cholinesterase / cholinesterase / plasma cholinesterase (che)): 0.45 mg/kg/day
- NEL (dog; [17]): 0.09 mg/kg/day
- NOAEL (dog; [17]): 0.09 mg/kg/day
- LEL (dog; group: cholinesterase, cholinesterase / cholinesterase / cholinesterase / plasma cholinesterase (che) + cholinesterase / cholinesterase / cholinesterase / …): 0.45 mg/kg/day
- LEL (dog; [18]): 3.43 mg/kg/day
- LOAEL (dog; [18]): > 3.43 mg/kg/day
- NEL (dog; [18]): 0.53 mg/kg/day
- NOAEL (dog; [18]): ≥ 3.43 mg/kg/day
- LEL (rabbit [6]; [19]): 1.25 mg/kg/day
- LOAEL (rabbit [6]; [19]): 1.25 mg/kg/day
- NEL (rabbit [6]; [19]): 0.25 mg/kg/day
- NOAEL (rabbit [6]; [19]): 0.25 mg/kg/day
- LEL (rabbit [6]; [20]): 7.5 mg/kg/day
- LOAEL (rabbit [6]; [20]): > 7.5 mg/kg/day
- NEL (rabbit [6]; [20]): 1.25 mg/kg/day
- NOAEL (rabbit [6]; [20]): ≥ 7.5 mg/kg/day
- LEL (rabbit [6]; [21]): 7.5 mg/kg/day
- LOAEL (rabbit [6]; [21]): 7.5 mg/kg/day
- NEL (rabbit [6]; [21]): 1.25 mg/kg/day
- NOAEL (rabbit [6]; [21]): 1.25 mg/kg/day
